Consider 64 molecules from a melting point compilation (Tetko et al.; mined from patent text by program, amines drawn as free bases though some values may be those of a salt).

Turning to `Cn1c(-c2ccc3ccccc3c2)n[nH]c1=S`, the melting point (as a rule, the temperature of the solid-liquid transition) lay within 223 to 225 °C. For `Cn1cc(-c2cccc(C(F)(F)F)c2)c(=O)n1-c1cccc(Cl)c1` the value was 130 to 131 °C; for `CN(C)N=C(O)c1cc(C(=N)O)c(C(=O)O)cc1C(=O)O`, 293 to 295 °C; for `O=c1[nH]c(NCCSCc2nccs2)nnc1Cc1cccnc1`, 158 to 159 °C. For `O=c1cc[nH]c2c([N+](=O)[O-])cc(Cl)cc12` the value was 238 to 241 °C; for `CC1CN(c2n[nH]c(-c3ccc(Cl)cc3)c2-c2ccncn2)CCN1C` (centres undefined), 212 to 214 °C. Take `CCOC(=O)c1c(-c2ccccc2C)c2cc3c(cc2n(C)c1=O)CCC3`: the melting point lay within 134 to 135 °C.

On to `CN(C(=O)CN1C(=O)c2ccccc2S1(=O)=O)c1ccccc1`, for which the melting point was 205 to 206 °C. Under `CC(C)(C)c1csc(-c2cc3cc(OCc4ccccc4Cc4nnn[nH]4)ccc3o2)n1` stands 80 to 84 °C; under `C=CCN1c2ccccc2-c2noc3c2C1CCC3` (centres undefined), 114 to 117 °C; under `Oc1ccc(Nc2nc(NCc3ccco3)nc(N3CCOCC3)n2)cc1`, 163 to 165 °C. With `O=C1CCC(N2Cc3cc(CNC(=O)Nc4ccc(Cl)c(-c5nc6ccccc6[nH]5)c4)ccc3C2=O)C(=O)N1` (centres undefined), the melting point lay in the range of 275 to 277 °C.

`CCOC(=O)C(=O)CC(=O)c1cccc(Cl)c1Cl` had a melting point of 57 to 58 °C. For `CC(=O)N1CCC(Br)(C(=O)c2ccc(F)cc2)CC1` the value was 156 to 159 °C; for `Cc1c(C=NO)c2ccccc2n1-c1ccc(O)cc1`, 171 to 173 °C.

For `CN1CCCC1=NC(=O)Nc1cccc2ccccc12`, the melting point was in the range of 148 to 149 °C. Under `COc1ccccc1C(=O)Nc1ccc(Cl)cc1` stands 56.1 to 58.7 °C; under `O=C1CCCc2ccc(O)cc21`, 170 to 173 °C.

With `C=C1C(=O)NC(=O)N1c1cccc(Cl)c1Cl`, the melting point fell in the range of 201 to 203 °C. Under `CN(C)CCN(C(=O)c1cccc([N+](=O)[O-])c1Br)c1ccnc2cc3c(cc12)OCO3` stands 96 to 97 °C. Under `[O-][N+]1=C(c2ccccc2Cl)c2ccccc2C=CC1` stands 115 to 116 °C. Under `CN1C(C)(C)CN(CCO)C(=O)C1(C)C` stands 77 to 80 °C; under `Cc1[nH]c(=S)n(Nc2ccccc2)c1C`, 217 to 219 °C.

In turn, `Cc1ccc(C2COc3c(C)c(C)cc(C)c32)cc1` (centres undefined) showed a melting point of 65 to 66 °C.

For `O=C1CCC2C3Cc4ccc(O)c5c4C2(CC[N+]3([O-])CC2CC2)C1O5` (centres undefined), the melting point was 209 to 211 °C. For `COc1ccc(C(=O)c2c(N)sc3c2CCN(Cc2ccccc2)C3)cc1` the value was 164 to 165 °C; for `CCOC(=O)C(NC(=O)c1ccc(Cl)cc1)C(=O)OCC`, 89.5 to 90.3 °C; for `Cc1ccc(C2OC(CO)C(O)C(O)C2O)cc1Cc1ccc(-c2ccc(F)cc2)s1` (centres undefined), 106 to 107 °C. The molecule `Cc1c(Cc2cc(=O)n(-c3cccc(C(F)(F)F)c3)[nH]2)c2cc(Cl)ccc2n1C(=O)c1ccc(Cl)cc1` yielded a melting point of 81 to 83 °C.

As for `CCOC(=O)c1ccc(N(CCO)C(=O)Nc2ccc(C3CCN(C(=O)C(F)(F)F)CC3)cc2)cc1`, the melting point was 105 to 108 °C. For `c1ccc(CSc2cn3ccsc3n2)cc1` the value was 76 to 77 °C; for `Cc1noc2ccc(Oc3ncccc3C(=O)NCC3CCC(C(C)(C)O)CC3)cc12` (centres undefined), 135 to 137 °C.

Consider `COc1ccc(O)c(CN2CCN(C(=S)SC)CC2)c1`, for which the melting point was determined as 112 °C. On to `C=Cc1cccc(-n2cnc(-c3cnc4[nH]cc(C(=O)N[C@@H](C)C(C)(C)C)c4n3)c2)c1`, for which the melting point was in the range of 253 to 257 °C. Under `CNCc1ccccc1-c1ccc(C(=O)N2Cc3ccc(C(=O)NCc4cccnc4)n3Cc3ccccc32)cc1` stands 149 to 150 °C; under `COCc1cc2ccccc2oc1=O`, 72 to 73 °C; under `COc1ccc(S(=O)(=O)N(CCC(F)(F)F)c2ccccc2/C=C/c2ccncc2)cc1`, 124 to 126 °C. Regarding `COC1=C(OC)C(=O)C(CCCCCCCCCCCCCCCCCC(=O)O)=C(C)C1=O`, the melting point is 77 to 79 °C. Turning to `COc1ccc(-c2cncc(-c3cn(C)c(=O)n3-c3ccc(C(C)(C)C#N)cc3)c2)cc1`, the melting point was found to be 200 °C.

As to `O=C1c2ccccc2C(=O)c2oc(-c3ccccc3)nc21`, the melting point is above 260 °C. Molecule `COc1ccc(N(Cc2cc(C(C)(C)C)c(O)c(C(C)(C)C)c2)S(=O)(=O)c2cccs2)cn1` gave a melting point of 96 to 97 °C. Consider `CCN(CC)C(=O)C(C)(C)C(=O)O`, for which the melting point lay in the range of 110 to 112 °C. For `O=C(O)COc1ccc(-c2c(Br)ccc3sc4ccccc4c23)cc1` the value was 210 °C; for `COC(=O)c1ccc(-c2coc3ccc(-c4nnc(C)o4)cc23)cc1`, 208 to 209 °C. In turn, `N#CCNC(=O)C(Sc1nc2cc(Cl)ccc2s1)c1ccccc1` (centres undefined) yielded a melting point of 167 to 169 °C.

Regarding `COCCNC(N)=Nc1nc(-c2cccc(CNC(=O)CN)c2)cs1`, the melting point lay within 66 to 67 °C. As for `Nc1ccc(OCC(COc2ccc(N)cc2)(COc2ccc(N)cc2)COc2ccc(N)cc2)cc1`, the melting point was in the range of 210 to 211 °C. Under `C=CC(CC(O)C(CC1CCCCC1)NC(=O)C(Cc1c[nH]cn1)NC(=O)C(Cc1ccccc1)Cc1ccccc1)C(C)C` (centres undefined) stands 98 °C; under `Cn1cc(S(C)=O)c(=O)c2sccc21` (centres undefined), 199 °C; under `CCCCc1oc2ccccc2c1C(=O)NCc1ccc2c(Br)c(OC(Cc3ccccc3)C(=O)O)ccc2c1` (centres undefined), 125 to 130 °C. Under `Cn1c(=O)c2c(ncn2CCCCC#N)n(C)c1=O` stands 118 to 120 °C; under `O=C(O)C(=O)c1ccc(-c2ccc(Cl)cc2)s1`, 339 to 343 °C; under `Cc1cc(Cl)c(O)c(CN(C)C2CCCCCCC2)c1`, 101 °C.

As to `CCOC(=O)Cc1c([N+](=O)[O-])cc([N+](=O)[O-])c2ccccc12`, the melting point was 132 to 134 °C.

On to `O=C(OCCc1ccccc1)ON1C(=O)CCC1=O`, for which the melting point lay within 69 to 72 °C. For the molecule `COC(=O)C=Cc1ccc(OCc2nc(-c3ccco3)oc2C)c(OC)c1`, the melting point lay in the range of 129 to 130 °C. For `COc1ccccc1Oc1c(NS(=O)(=O)c2ccc(C)cn2)nc(-c2ccncc2)nc1OC` the value was 225 to 226 °C; for `C[C@H](C#Cc1scc(Cc2ccc(F)cc2)c1Cc1ccc(F)cc1)N(O)C(N)=O`, 128 to 130 °C. Molecule `Nc1ncnc2c1ncn2CC(=O)Nc1ccc(-n2nc(C(F)(F)F)cc2C2CC2)cc1` registered a melting point of 249 to 252 °C. Under `O=C(O)COCC(=O)CCCCCCCCCC(=O)NONC(=O)O` stands 64 to 67 °C. Under `c1cc2c(cc1NC1=NCCN1)CCC2` stands 41 to 42 °C; under `O=C(NS(=O)(=O)Cl)Oc1c(-c2ccccc2)cccc1-c1ccccc1`, 159 to 162 °C. Under `O=C(/C=C/c1ccc2ccccc2c1)Nc1cc(Cl)ccc1OCc1nnn[nH]1` stands 218 to 223 °C; under `N#Cc1c(Cl)cncc1Cl`, 117 to 118 °C.
